Measurements: US5491172A, “N-acyl sulfamic acid esters (or thioesters), N-acyl sulfonamides, and N-sulfonyl carbamic acid esters (or thioesters) as hypercholesterolemic agents” (Warner-Lambert Company, priority 1994, dated 1996)
Where a name gives a salt, the structure may show the parent alone.

Experiments:
[1] = biological target: acyl-CoA:cholesterol acyltransferase (ACAT); test: in vitro ACAT inhibition (LAI): radiolabeled cholesterol oleate formed from radiolabeled oleic acid in rat liver microsomes; assay type: biochemical; conditions: concentration required to inhibit enzyme activity by 50%
Procedure: The ability of representative compounds of the present invention to inhibit ACAT was measured using an in vitro test more fully described in Field FJ, Salone RG, Biochemica et Biophysica, 1982;712:557-570. The test assesses the ability of a test compound to inhibit the acylation of cholesterol by oleic acid by measuring the amount of radiolabeled cholesterol oleate formed from radiolabeled oleic acid in a tissue preparation containing rat liver microsomes.

[2] = in vivo screen APCC: blood cholesterol in rats fed overnight a high fat, high cholesterol (PCC) diet; conditions: male Sprague-Dawley rats, dosed at 4 PM, PCC diet with 0.5% cholic acid overnight, blood sampled 8 AM, dose not given
Excerpt: In one in vivo screen designated APCC, male Sprague-Dawley rats (200 to 225 g) were randomly divided into treatment groups and dosed at 4 PM with either vehicle (CMC/Tween) or suspensions of compounds in vehicle. The normal chow diet was then replaced with a high fat, high cholesterol diet (designated PCC) containing 0.5% cholic acid. The rats consumed this diet ad libitum during the night and were sacrificed at 8 AM to obtain blood samples for cholesterol analysis using standard procedures. Statistical differences between mean cholesterol values for the same vehicle were determined using analysis of variance followed by Fisher's least significant test.

| SMILES | IC50 [1] | % Change (mg/dl) in cholesterol [2] | IC50 ([1]; sodium salt) | % Change (mg/dl) in cholesterol ([2]; sodium salt) |
| --- | --- | --- | --- | --- |
| CC(C)c1cccc(C(C)C)c1CC(=O)NS(=O)(=O)Oc1c(C(C)C)cccc1C(C)C [Example 1, sulfamic acid[[2,6-bis(1-methylethyl)phenyl]acetyl]-2,6-bis(1-methylethyl)phenyl ester] | 9.7 µM | -63% | – | – |
| CC(=O)OC(C(=O)NS(=O)(=O)Oc1c(C(C)C)cccc1C(C)C)c1c(C(C)C)cc(C(C)C)cc1C(C)C (stereo not drawn) [Example 42, sulfamic acid[(acetyloxy)[2,4,6-tris(1-methylethyl)phenyl]acetyl]-2,6-bis(1-methylethyl)phenyl ester] | 7 µM | -25% | – | – |
| CC(C)c1cc(C(C)C)c(CC(=O)NS(=O)(=O)Oc2c(C(C)C)cc(C(C)C)cc2C(C)C)c(C(C)C)c1 [Example 8, sulfamic acid[[2,4,6-tris(1-methylethyl)phenyl]acetyl]-2,4,6-tris(1-methylethyl)phenyl ester] | 21 µM | -66% | – | – |
| CC(C)c1cc(C(C)C)c(CC(=O)NS(=O)(=O)Oc2c(C(C)C)cccc2C(C)C)c(C(C)C)c1 [Example 5, Sulfamic acid[[2,4,6-tris(1-methylethyl)phenyl]acetyl]-2,6-bis(1-methylethyl)phenylester] | 12 µM | -73% | – | – |
| CC(C)c1cccc(C(C)C)c1CC(=O)NS(=O)(=O)Oc1c(C(C)C)cccc1C(C)C [Example 2, sulfamic acid[[2,6-bis(1-methylethyl)phenyl]acetyl]-2,6-bis(1-methylethyl)phenyl ester sodium salt] | – | – | 12 µM | -62% |
| CC(C)c1cc(C(C)C)c(CCC(=O)NS(=O)(=O)Oc2c(C(C)C)cccc2C(C)C)c(C(C)C)c1 [Example 41, sulfamic acid[1-oxo-3-[2,4,6-tris(1-methylethyl)phenyl]propyl]-2,6-bis(1-methylethyl)phenyl ester] | 28 µM | -73% | – | – |
| CC(C)c1cccc(C(C)C)c1OS(=O)(=O)NC(=O)C1CCc2ccccc2C1 (stereo not drawn) [Example 29, sulfamic acid[(1,2,3,4-tetrahydro-2-naphthyl)carbonyl]-2,6-bis(1-methylethyl)phenylester] | 15 µM | -9% | – | – |
| CC(C)c1cccc(C(C)C)c1OS(=O)(=O)NC(=O)C(c1ccc(Cl)cc1)c1ccc(Cl)cc1 [Example 35, sulfamic acid[bis-(4-chlorophenyl)acetyl]-2,6-bis(1-methylethyl)phenyl ester] | 8.9 µM | -9% | – | – |
| CC(C)c1cccc(C(C)C)c1OS(=O)(=O)NC(=O)C(C)(c1ccccc1)c1ccccc1 [Example 34, sulfamic acid(1-oxo-2,2-diphenylpropyl)-2,6-bis(1-methylethyl)phenyl ester] | 7.7 µM | -67% | – | – |
| CC(C)c1cccc(C(C)C)c1OS(=O)(=O)NC(=O)C12CC3CC(CC(C3)C1)C2 [Example 12] | – | -5% | – | – |
| CCC(C(=O)NS(=O)(=O)Oc1c(C(C)C)cccc1C(C)C)c1ccccc1 (stereo not drawn) [Example 32, sulfamic acid(1-oxo-2-phenylbutyl)-2,6-bis(1-methylethyl)phenyl ester] | 8.9 µM | -48% | – | – |
| CC(C)c1cc(C(C)C)c(C(F)C(=O)NS(=O)(=O)Oc2c(C(C)C)cccc2C(C)C)c(C(C)C)c1 (stereo not drawn) [Example 44, sulfamic acid[fluoro[2,4,6-tris(1-methylethyl)phenyl]acetyl]-2,6-bis(1-methylethyl)phenyl ester] | 9.4 µM | -74% | – | – |
| CC(C)c1cc(C(C)C)c(C=CC(=O)NS(=O)(=O)Oc2c(C(C)C)cccc2C(C)C)c(C(C)C)c1 [Example 40, sulfamic acid[1-oxo-3-[2,4,6-tris-(1-methylethyl)phenyl]-2-propenyl]-2,6-bis-(1-methylethyl)phenyl ester] | 32 µM | -54% | – | – |
| CC(C)c1cccc(C(C)C)c1OS(=O)(=O)NC(=O)Cc1cccs1 [Example 19, sulfamic acid[2-thiophenyl(acetyl)]-2,6-bis(1-methylethyl)phenyl ester] | > 50 µM | -20% | – | – |
| CC(C)c1cccc(C(C)C)c1OS(=O)(=O)NC(=O)C1c2ccccc2Oc2ccccc21 [Example 36, sulfamic acid[(9H-xanthen-9-yl)carbonyl]-2,6-bis(1-methylethyl)phenyl ester] | 22 µM | -6% | – | – |
| CC(C)c1cccc(C(C)C)c1OS(=O)(=O)NC(=O)Cc1ccsc1 [Example 20, sulfamic acid[3-thiophenyl(acetyl)]-2,6-bis(1-methylethyl)phenyl ester] | > 50 µM | -19% | – | – |

| SMILES | IC50 [1] | % Change (mg/dl) in cholesterol [2] | IC50 ([1]; sodium salt) | % Change (mg/dl) in cholesterol ([2]; sodium salt) |
| --- | --- | --- | --- | --- |
| CCC(C)C(C(=O)NS(=O)(=O)Oc1c(C(C)C)cccc1C(C)C)c1ccccc1 (stereo not drawn) [Example 45, sulfamic acid(3-methyl-1-oxo-2-phenylpentyl)-2,6-bis(1-methylethyl)phenyl ester sodium salt] | – | – | 5.6 µM | -63% |
| CC(C)c1cccc(C(C)C)c1OS(=O)(=O)NC(=O)Cc1ccccc1 [Example 7, sulfamic acid(phenylacetyl)-2,6-bis(1-methylethyl)phenyl ester] | 47 µM | -17% | – | – |
| CC(C)c1cccc(C(C)C)c1OS(=O)(=O)NC(=O)C(=O)c1ccccc1 [Example 22, sulfamic acid(oxophenylacetyl)-2,6-bis(1-methylethyl)phenyl ester] | 50 µM | -23% | – | – |
| CC(C)c1cccc(C(C)C)c1OS(=O)(=O)NC(=O)C(c1ccccc1)c1ccccc1 [Example 27, sulfamic acid(diphenylacetyl)-2,6-bis(1-methylethyl)phenyl ester] | 12 µM | -72% | – | – |
| CC(C)c1cccc(C(C)C)c1OS(=O)(=O)NC(=O)C(c1ccccc1)C1CCCC1 (stereo not drawn) [Example 25, sulfamic acid(cyclopentylphenylacetyl)-2,6-bis(1-methylethyl)phenyl ester] | 7.2 µM | -71% | – | – |
| COc1ccc(OC)c(CC(=O)NS(=O)(=O)Oc2c(C(C)C)cccc2C(C)C)c1 [Example 16, sulfamic acid[2,5-dimethoxyphenyl(acetyl)]-2,6-bis(1-methylethyl)phenyl ester] | 36 µM | +10% | – | – |
| CC(C)c1cccc(C(C)C)c1OS(=O)(=O)NC(=O)[C@@H]1C[C@H]1c1ccccc1 (relative stereo) [Example 15, sulfamic acid trans-[(2-phenylcyclopropyl)carbonyl]-2,6-bis(1-methylethyl)phenyl ester] | – | -14% | – | – |
| CC(C)c1cccc(C(C)C)c1OS(=O)(=O)NC(=O)CC12CC3CC(CC(C3)C1)C2 [Example 4, sulfamic acid[adamantaneacetyl]-2,6-bis[1-methylethyl]phenyl ester] | 13 µM | -47% | – | – |
| CCCCCCCCCC(=O)NS(=O)(=O)Oc1c(C(C)C)cccc1C(C)C [Example 10, sulfamic acid (decanoyl)-2,6-bis(1-methylethyl)phenyl ester] | – | -26% | – | – |
| CC(C)c1cccc(C(C)C)c1OS(=O)(=O)NC(=O)C1(c2ccccc2)CCCC1 [Example 30, sulfamic acid[(1-phenylcyclopentyl)carbonyl]-2,6-bis(1-methylethyl)phenyl ester] | 4.1 µM | -40% | – | – |
| CC(C)c1cccc(C(C)C)c1OS(=O)(=O)NC(=O)C(Br)c1ccccc1 (stereo not drawn) [Example 39, sulfamic acid[bromo(phenyl)acetyl]-2,6l-bis(1-methylethyl)phenyl ester] | 32 µM | +5% | – | – |
| CC(C)c1cc(C(C)C)c(CC(=O)NS(=O)(=O)Oc2c(C(C)C)cccc2C(C)C)c(C(C)C)c1 [Example 6, sulfamic acid[[2,4,6-tris(1-methylethyl)phenyl]acetyl]-2,6-bis(1-methylethyl)phenylester sodium salt] | – | – | – | -75% |
| CC(C)c1cccc(C(C)C)c1OS(=O)(=O)NC(=O)C(c1ccccc1)(c1ccccc1)c1ccccc1 [Example 28, sulfamic acid(triphenylacetyl)-2,6-bis(1-methylethyl)phenyl ester] | 6 µM | -30% | – | – |
| CC(C)c1cccc(C(C)C)c1OS(=O)(=O)NC(=O)Cc1ccccc1C(F)(F)F [Example 23, sulfamic acid[2-trifluoromethylphenyl(acetyl)]-2,6-bis(1-methylethyl)phenyl ester] | 12 µM | -19% | – | – |
| CC(C)c1cc(C(C)C)c(C(O)C(=O)NS(=O)(=O)Oc2c(C(C)C)cccc2C(C)C)c(C(C)C)c1 (stereo not drawn) [Example 43, sulfamic acid[hydroxy[2,4,6-tris(1-methylethyl)phenyl]acetyl]-2,6-bis(1-methylethyl)phenyl ester] | 31 µM | -45% | – | – |
| CCCCCCCCCCCC(=O)NS(=O)(=O)Oc1c(C(C)C)cccc1C(C)C [Example 11, sulfamic acid(dodecanoyl)-2,6-bis(1-methylethyl)phenyl ester] | > 10 µM | -8% | – | – |
